Test results: patent publication US20090326013A1, “ISOMERS OF INOSITOL NIACINATE AND USES THEREOF” (priority 2007, published 2009)
Each block holds one compound with its values, some of them ahead of it.

Experiments:
[1] = 250 mg 3 times daily combined with Mg-chlorophenoxyisobutyrate; cited from earlier work
[2] = Dissolution and hydrolysis in simulated gastric fluid (SGF) pH 1.1, release of niacin; type: physicochemical; settings: for release of niacin in SGF, allo-IHN compared with myo-IHN (FIG. 8): SGF pH 1.1, up to 150 hours; for time to complete dissolution in SGF: 25 mg in 25 mL SGF pH 1.1, 37°C, shaking
Experimental: The hydrolysis was performed in a 37±1° C. thermostatic water bath with a shaking rate at 97±2 rpm. At various time intervals, 100 μl aliquots were taken from the reaction mixture and diluted with 1.5 mL 80/20 acetonitrile/formic acid which were used to quench the hydrolysis reaction.
The pH of the SGF solution was 1.1 at 22° C. […] The reactor was placed in a thermostatic water bath at 37±1° C. with a shaking rate at 42±1 rpm. At various reaction times, 1 mL aliquots were taken from the reaction mixture and analyzed for niacin by HPLC.

[3] = Dissolution and hydrolysis in pH 7.4 phosphate buffer (SIF without pancreatin); type: physicochemical; settings: at about 25 hours
Experimental: A pH 7.4 phosphate buffer solution was also prepared from a SIF test solution in the absence of pancreatin. […] The release of niacin and the appearance of the degradation intermediates were monitored up to about 74 hours.

Esterase = assay: Hydrolysis in pH 7.4 phosphate buffer (SIF) with esterase; type: in vitro ADME; settings: for degradation intermediates (penta-, tetra-, tri-, di-niacinates) observed: 16 hours
Experimental: Esterase is an enzyme found in animal liver which catalyzes the hydrolysis of esters. The esterase reaches maximum activity in pH 8.0 borate buffer at 25° C. Simulated intestinal fluid without pancreatin (SIF, 1 L) was prepared according to USP standard procedure (USP29-NF24 S2). The pH of the SIF solution was then adjusted to 7.4. Esterase (6.0 mg) was then added to 200 mL of the pH 7.4 phosphate buffer. […] After sonication for about 1 minute these suspensions were carefully transferred to the hydrolysis medium. As each suspension was added to the pH 7.4 phosphate buffer, a milky white precipitated immediately appeared. The reactors were kept in a thermostatic water bath at 37±1° C. with a shaking rate at 42±1 rpm. At various reaction times ˜2 mL aliquots were taken from the hydrolysis solutions and filtered through 0.45 μm filters in order to remove any undissolved materials. The samples for HPLC analysis were prepared by addition of 20 μL 6N HCl to 1 mL filtrate.

[4] = Dissolution and hydrolysis in SIF with pancreatin at pH 6.7; type: in vitro ADME; settings: pH 6.7, up to 40 hours
Experimental: Simulated intestinal fluid (SIF) with pancreatin was prepared according to the USP standard procedure (USP29-NF24 S2) with a pH of 6.7 at 24° C.

alcoholics = settings: three or more grams of niacin daily, five year study; cited from earlier work
[5] = test system: women suffering from painful menstrual cramps; settings: 100 mg niacin twice daily, then every 2-3 hours during heavy cramps; cited from earlier work
[6] = pH 7.4 phosphate buffer with esterase

Structure (SMILES): O=C(O[C@H]1[C@H](OC(=O)c2cccnc2)[C@@H](OC(=O)c2cccnc2)[C@H](OC(=O)c2cccnc2)[C@@H](OC(=O)c2cccnc2)[C@H]1OC(=O)c1cccnc1)c1cccnc1 [IHN, inositol hexaniacinate]
- influence on glucose tolerance [1]: no influence on glucose tolerance

Structure (SMILES): O=C(O[C@H]1[C@H](OC(=O)c2cccnc2)[C@@H](OC(=O)c2cccnc2)[C@H](OC(=O)c2cccnc2)[C@@H](OC(=O)c2cccnc2)[C@H]1OC(=O)c1cccnc1)c1cccnc1 [myo-IHN, myo-inositol hexaniacinate, reference compound]
- time to complete dissolution in SGF [2]: 6 h
- release of niacin in SGF, allo-IHN compared with myo-IHN (FIG. 8) [2]: about the same
- release of niacin in SIF with pancreatin [4]: very little release of niacin
- dissolution rate in the hydrolysis medium (Esterase; [6]): considerably slower than the hydrolysis rate
- extent of hydrolysis (FIG. 9) (Esterase; [6]): remained as a solid and did not hydrolyze
- degradation intermediates (penta-, tetra-, tri-, di-niacinates) observed (Esterase; [6]): absence of degradation intermediates

Structure (SMILES): O=C(O)c1cccnc1 [niacin, pyridine-3-carboxylic acid]
- alcoholics who benefit from supplementation (reduced recidivism and symptom reduction) (alcoholics): 30-60%
- participants experiencing significant relief of menstrual cramps [5]: Ninety

The next lines start with results.

- niacin released in SGF ([2]; 20 mg in 200 mL SGF pH 1.1, 37°C, 118 hours): 38.5 µg/mL
- niacin released in SGF, % of theoretical niacin content ([2]; SGF pH 1.1, 118 hours, theoretical 91 μg/mL): ~42%
- release of niacin in SGF, allo-IHN compared with myo-IHN (FIG. 8) [2]: about the same
- maximum concentration of niacin released ([3]; 20 mg in 200 mL pH 7.4 phosphate buffer): 30.34 µg/mL
- maximum niacin released, % of theoretical release ([3]; pH 7.4 phosphate buffer): ~33%
- concentration of niacin released (Esterase; 20 mg in 200 mL pH 7.4 phosphate buffer with esterase, 25 hours): 52.8 µg/mL
- dissolution rate in the hydrolysis medium (Esterase; [6]): relatively fast
- niacin released, % of theoretical release (Esterase; pH 7.4 phosphate buffer with esterase, 25 hours): ~58%
- area response of the niacin peak compared with the myo-IHN sample (Esterase; pH 7.4 phosphate buffer with esterase, within one hour): significantly larger
- effect of the presence of esterase on release of niacin (Esterase; pH 7.4 phosphate buffer with vs without esterase): further enhances the release of niacin
Structure (SMILES): O=C(O[C@H]1[C@H](OC(=O)c2cccnc2)[C@H](OC(=O)c2cccnc2)[C@@H](OC(=O)c2cccnc2)[C@@H](OC(=O)c2cccnc2)[C@H]1OC(=O)c1cccnc1)c1cccnc1 [allo-IHN, allo-inositol hexaniacinate]
- onset of dissolution and hydrolysis in SGF ([2]; 20 mg in 200 ml SGF pH 1.1, 37°C): began immediately after addition to the reaction medium
- degradation intermediates (penta-, tetra-, tri-, di-niacinates) observed (Esterase; [6]): only the degradation intermediates of allo-IHN

- time to complete dissolution in SGF [2]: > 53 h
Structure (SMILES): O=C(O[C@H]1[C@H](OC(=O)c2cccnc2)[C@@H](OC(=O)c2cccnc2)[C@H](OC(=O)c2cccnc2)[C@@H](OC(=O)c2cccnc2)[C@@H]1OC(=O)c1cccnc1)c1cccnc1 [scyllo-IHN, Scyllo-inositol hexaniacinate]
- dissolution and hydrolysis after increasing acidity of the SGF medium ([2]; 2 ml concentrated HCl injected after 53 hours): can be dissolved and the hydrolysis reaction commences to produce niacin
